One data set concerns the target AKAP-PKA interaction (Homo sapiens, UniProt P13861). In words: AKAP-PKA interaction (disruption) assays of Examples 1-3: alpha screen, surface plasmon resonance, ELISA (combined classification). In kind it is binding. To be noted: for IC50: read-out: Activity (IC50 class); for Activity in AKAP-PKA interaction assays (in words): assays of Examples 1-3. On the procedure:
The inhibition of the interaction of the alpha RII subunit of protein kinase A with AKAP18-alpha by the compounds according to the invention is determined as follows:
The experiment measures the suitability of candidate compounds for the inhibition of the interaction between AKAP and PKA. An AKAP-GST fusion construct is immobilized on glutathione donor beads and His-RII-alpha on Ni-chelate acceptor beads. To the extent that the partners interact, singlet oxygen from the donor beads becomes free and activates the fluorescence emission of the acceptor beads. The fluorescence emission determined in the microplate reader is proportional to the intensity of interaction of the protein partners. The IC50 is determined from the results of the measurement of several concentrations of one candidate compound.
The details of the process were as follows: Two protein Solutions A and B are produced in a buffer (phosphate NaCl buffer, 0.1% polysorbate 80, 0.1% [=1 mg/ml BSA]). These contain (A) the histidine-6-tagged fusion construct RII-alpha-His (3.125 nmol/l) and (B) the glutathione-S-transferase-tagged fusion construct GST-AKAP18-alpha-d2-10 (6.25 nmol/l). One volume unit each of protein solution and bead suspension are incorporated, specifically Solution A of the His6-tagged protein with Ni-chelate bead suspension and Solution B of the GST-fusion protein with glutathione beads (Perkin Elmer Product No. 6765302), and in doing so the concentrations are selected according to the manufacturers information. The Mixtures A and B obtained are incubated for one hour at room temperature (RT) in the dark.
Then, 5 μl of Mixture A is laid out for each hole on a 384-hole microtiter plate, and then to start with 0.5 μl of a solution of the candidate compound in DMSO is added and then 5 μl of Mixture B. The resulting reaction mixture is incubated 1 h at RT in the dark. Then, the reaction is tempered to 28.5° C., and the emitter intensity of the acceptor is determined in a microtiter plate reader after excitation of the donor at 680 nm.
The relative inhibition of the AKAP-PKA interaction is calculated following the formula: 1−(xc−y)/(z−y) where: X=average of readings (n=3) at concentration c; Y=average of measurement data from bead-bead check (n=6); Z=average of measurement data from protein-protein check (n=6). Results:
Surface plasmon resonance analyses for competition in solution were performed with streptavidin-coated sensor chips (GE Healthcare, Uppsala, Sweden). The N-terminal biotinylated peptide AKAP18d-L314E was used, which is a variant of the RH-binding domains of AKAP18δ (Hundsrucker et al., Biochem. J. 396, 297-306, [2006]). The binding of the regulatory subunit of the human PKAII-α or RII-β onto the peptide surface of the AKAP18δ-L314E, or the inhibition of this binding to RII by the compounds of the invention, was measured on a Biacaore 3000 machine (Biacore/GE Healthcare) as previously described (Henn et al., J Biol Chem 279, 26654-26665 [2004]). The compounds were injected for 60 sec at a flow rate of 30 μl/min, and the dissociation phase was measured for 180 sec.
Multititer plates (Corning B.V. Life Sciences, Schiphol-Rijk, Netherlands) were coated with recombinantly produced PKA RIIα (15 ng/hole) by incubation with phosphate buffer containing protease inhibitors (1 h, 22° C.). The plate was then blocked with lactoprotein.
GST-AKA7δ (Hundsrucker et al., Biochem. J. 396, 297-306, [2006]; 15 ng/well) was incubated with and without candidate compounds on the plate for 1 h at 22° C. After washing, it was incubated with antibodies (rabbit) against AKA7δ (A18δ3) and then with a peroxidase-conjugated antirabbit antibody and developed with dye substrate (LumiLight Western Blotting Substrate, Roche Diagnostics, Mannheim, Germany). Luminescence activity was determined in a microplate reader (GeniosPro, Tecan, Durham, N.C., United States) at 10 msec integration.
A general note: SPR reads the build-up and loss of mass on a sensor chip optically.

A further data set addresses PKA subunit RIIα (Homo sapiens, UniProt P13861). Briefly: Microscale Thermophoresis (MST). The format is binding. The conditions noted are these: 20 mM Phosphate, pH 7.5, 100 mM NaCl, 0.05% Tween 20, 5% DMSO, 25° C. On the procedure:
Microscale Thermophoresis (MST) were performed on a monolith NT machine (nano tember technologies, Munich, Germany) with exemplary compounds (T2/11, 15, 59) in 20 mM Phosphate, pH 7.5, 100 mM NaCl, 0.05% Tween 20 and 5% DMSO according to the general protocol provided by the manufacturer. Interaction partners were PKA subunit RIIα labelled with blue fluorescent dye NT-495; the parameters were: LED blue, LED Power 80%, Laser Power 20-80%, 25° C. A constant concentration of compounds was titrated with increasing concentrations of unlabelled PKA RIIα (50 nM, 100 nM, 250 nM, 500 nM, 1 μM, 2.5 μM, 5 μM, 10 μM, 25 μM, 50 μM, 100 μM and 200 μM).
In general terms: In MST a laser heats a spot of the sample, and binding alters the fluorescence response.

For data set [1], the system named is TAC operated C57BL/6 mice. Briefly: Echocardiography in the TAC model, Example 5a. The format is in vivo. On the procedure:
Protocol: For intervention 12- to 14-week-old male C57BL/6 mice (Charles River Sulzfeld) were anesthetized by 2.4% isoflurane inhalation. Transverse aortic banding (TAC) was performed by tying a 7-0 prolene suture (Ethicon) ligature around the aorta and a blunted 26-gauge needle and subsequent removal of the needle. For sham controls the suture was not tied. TAC was confirmed by echocardiography and measurement of blood flow gradient 4 weeks after surgery. Next, mini-osmotic pumps (model 1004, Alzet) with T2/15 compound/vehicle were implanted i.p. Echocardiography was performed 2 and 4 weeks with compound treatment.
For echocardiography analyses mice were anesthetized by 2.4% isoflurane inhalation and ventricular measurements were done with a VisualSonics Vevo 2100 Imaging System equipped with a 45 MHz MS-550D MicroScan transducer. The observer was unaware of the genotypes and treatments.
Differences between experimental groups were analyzed using ANOVA test followed by Bonferroni's Multiple Comparison Test using Prism Graphpad 4. Data are presented as mean±SEM. P<0.05 values were considered significant.

The subject of data set [2] is C57B1/6 mice undergoing TAC operations. In words: Transverse aortic constriction (TAC) animal model, Example 5. The format is in vivo. On the procedure: In male C57B1/6 mice (12-14 weeks old, average weight 26 g), high pressure overload induced by restricting the aorta following the method published by de Alameida et al. (J vis exp. 2010 Apr. 21; [38]). Control animals were treated with sham operations. The animals were observed over a period of 4 weeks after the operation, and then mini osmotic pumps were implanted intraperitoneally with a compound to be tested (0.5, 5, 50, and 100 μmol/l, corresponding to 6 μg/kg/day) (Table 2), a β1-adrenergic receptor antagonist (metoprolol; 24 mg/kg/day), a β1-adrenergic receptor […], a PDE3-inhibitor (milrinone; 3.0 mg/kg/d), and DMSO. Echocardiograms were done two and four weeks after implantation.
As expected, the narrowing of the aorta leads to cardiac hypertrophy and chronic heart failure in the 4-week period after surgery. The ejection fraction (ejection fraction; Ef) is the portion of the blood contained in the chambers of the heart that is ejected in comparison with the total volume at the end of diastole of the ventricle. […] The following groups were measured:
Animals undergoing sham operations with • only DMSO as vehicle control (solid black bar); • Compound 59, 3 μg/kg/day in DMSO (checked bar); • Compound 59, 6 μg/kg/day in DMSO (bold crosshatched bar);
Animals undergoing TAC operations with • only DMSO as vehicle control (bold vertically hatched bar); • Compound 59, 0.03 μg/kg/day in DMSO (bold diagonal hatching to upper right); • Compound 59, 0.03 μg/kg/day in DMSO (bold diagonal hatching to lower right); • Compound 59, 3 μg/kg/day in DMSO (thin diagonal hatching to upper right); • Compound 59, 6 μg/kg/day in DMSO (thin diagonal hatching to lower right);

Setting [3] is: class from IC50 values in assays of Examples 1, 2 or 3.
The mark [4] stands for this setting: between 0.3 and 3 μg/kg/d, vs. DMSO.

AKAP-PKA interaction, sequence (P13861 2-404 limits assumed): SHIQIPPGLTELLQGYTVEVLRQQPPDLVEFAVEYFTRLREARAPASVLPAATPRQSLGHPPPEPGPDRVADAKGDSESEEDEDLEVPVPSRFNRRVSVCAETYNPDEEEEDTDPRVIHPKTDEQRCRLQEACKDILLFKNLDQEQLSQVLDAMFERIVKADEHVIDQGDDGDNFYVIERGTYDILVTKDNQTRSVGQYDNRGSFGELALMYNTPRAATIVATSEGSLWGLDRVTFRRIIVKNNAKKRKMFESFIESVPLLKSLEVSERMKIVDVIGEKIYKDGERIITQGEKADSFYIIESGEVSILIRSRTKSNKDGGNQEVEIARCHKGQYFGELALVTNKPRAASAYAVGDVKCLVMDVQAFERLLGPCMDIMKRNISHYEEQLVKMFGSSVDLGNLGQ
PKA subunit RIIα, sequence (P13861 whole entry): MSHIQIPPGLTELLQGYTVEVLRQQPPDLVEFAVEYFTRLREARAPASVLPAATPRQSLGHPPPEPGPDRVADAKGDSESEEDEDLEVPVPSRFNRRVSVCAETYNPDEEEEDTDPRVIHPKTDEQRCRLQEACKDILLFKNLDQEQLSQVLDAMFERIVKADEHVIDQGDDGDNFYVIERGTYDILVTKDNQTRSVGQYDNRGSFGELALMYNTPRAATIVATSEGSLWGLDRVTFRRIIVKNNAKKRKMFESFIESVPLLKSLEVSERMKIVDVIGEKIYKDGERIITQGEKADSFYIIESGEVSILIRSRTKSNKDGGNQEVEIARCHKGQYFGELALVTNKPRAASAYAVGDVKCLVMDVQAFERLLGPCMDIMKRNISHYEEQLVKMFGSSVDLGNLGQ

As for `Cc1cnc(N/C=C2\Sc3ccccc3C2=O)s1` [T2/11, (2Z)-2-[[(5-methylthiazole-2-yl)amino]methylene]benzothiophene-3-one], the “IC50 relative to that of the unsubstituted mother compound” value at AKAP-PKA interaction (alkyl substituent on heteroaromatic pentacycle) is “about 50%”. In addition, on AKAP-PKA interaction (setting [3]), the 50% inhibitory concentration (IC50) was under 150 µM. The Kd at PKA subunit RIIα came out at 31.9 µM. With `N#Cc1cnc(N/C=C2\Sc3ccccc3C2=O)s1` [T2/15, 2-[[(z)-(3-oxobenzothiophene-2-ylidene)methyl]amino]thiazole-5-carbonitrile], the IC50 on AKAP-PKA interaction (setting [3]) was under 25 µM. In data set [1] (setting [4]), the cardiac function result is recorded as “improved function” and the “heart rate or -mass” value is reported as “without increasing”. The “wall dimensions and cavity diameter (IVSd, LVPWd, LVEDd)” value in data set [1] (echocardiography, i.p. mini-osmotic pump, 2 and 4 weeks treatment) is given as “no significant effect”. The “HW/TL (heart weight normalized against tibia length)” value in data set [1] (treatment vs. DMSO, FIG. 6) is “has an effect on HW/TL”. For the same molecule, binding at PKA subunit RIIα was put at a Kd of 98.1 µM. `O=C1/C(=N/Nc2nccs2)Sc2ccccc21` [T2/50, (2Z)-2-(thiazole-2-ylhydrazono)benzothiophene-3-one]: at AKAP-PKA interaction (setting [3]), the IC50 was under 25 µM.

As to `Cc1csc(N/N=C2\Sc3ccccc3C2=O)n1` [T2/51, (2Z)-2-[(4-methylthiazole-2-yl)hydrazono]benzothiophene-3-one], the half-maximal inhibitory concentration (IC50) at AKAP-PKA interaction (setting [3]) was under 25 µM. With `O=C1/C(=N/Nc2ncc([N+](=O)[O-])s2)Sc2ccccc21` [T2/52, (2Z)-2-[(5-nitrothiazole-2-yl)hydrazono]benzothiophene-3-one], the IC50 at AKAP-PKA interaction (setting [3]) was under 25 µM.

Regarding `O=C(O)c1cnc(N/N=C2\Sc3ccccc3C2=O)s1` [T2/53, 2-[(2Z)-2-(3-oxobenzothiophene-2-ylidene)hydrazino]thiazole-5-carboxylic acid], the IC50 at AKAP-PKA interaction (setting [3]) was under 25 µM.

In the case of `O=C1/C(=C/Nc2nc3ccccc3s2)Cc2ccccc21` [T2/55, (2e)-2-[(1,3-benzothiazole-2-ylamino)methylene]indane-1-one], on AKAP-PKA interaction (setting [3]), the IC50 was under 250 µM.

In the case of `O=C(O)c1ccc(N/C=C2\Cc3ccccc3C2=O)cc1` [T2/56, 4-[[(e)-(1-oxoindan-2-ylidene)methyl]amino]benzoic acid], on AKAP-PKA interaction (setting [3]), the concentration for half-maximal inhibition (IC50) was under 150 µM.

For the molecule `O=C1/C(=C/Nc2nc3ccccc3s2)Oc2ccccc21` [T2/57, (2Z)-2-[(1,3-benzothiazole-2-ylamino)methylene]benzofuran-3-one], at AKAP-PKA interaction (setting [3]), the IC50 was 250 to 750 µM. On to `O=C(O)c1ccc(N/C=C2\Oc3ccccc3C2=O)cc1` [T2/58, 4-[[(z)-(3-oxobenzofuran-2-ylidene)methyl]amino]benzoic acid], for which, on AKAP-PKA interaction (setting [3]), the “Activity (IC50 class)” value was 4-[[(z)-(3-oxobenzofuran-2-ylidene)methyl]amino]benzoic acid Activity: B/C. In the case of `O=C(O)c1ccc(N/C=C2\Sc3ccccc3C2=O)cc1` [T2/59, 4-[[(z)-(3-oxobenzothiophene-2-ylidene)methyl]amino]benzoic acid], the concentration for half-maximal inhibition (IC50) at AKAP-PKA interaction (setting [3]) is under 250 µM. In data set [2] (TAC model mice), the heart rate entry is “does not affect the heart rate”. The “ejection fraction (Ef)” value in data set [2] (TAC operated mice, i.p. mini osmotic pump, depending on the dose, operated without treatment 20%, healthy >60%) is given as 40%. The “heart weight (ratio of heart weight to the tibia length)” value in data set [2] (TAC operated treated mice, FIG. 2) was “falls significantly”. Further, at PKA subunit RIIα, the affinity, expressed as Kd, was 88.5 µM. For the molecule `Cc1ccccc1N/C=C1/Sc2ccccc2C1=O` [T3/4, (2E)-2-[(2-methylanilino)methylene]benzothiophen-3-one], the “Activity in AKAP-PKA interaction assays (in words)” value on AKAP-PKA interaction was “abolished activity”.

Regarding `O=C1/C(=C/Nc2ccc(O)cc2)Sc2ccccc21` [VI, (2Z)-2-[(4-hydroxyanilino)methylene]benzothiophen-3-one, reference compound], at AKAP-PKA interaction, the “Activity in AKAP-PKA interaction assays (in words)” value is reported as “could not be found to show significant reduction of AKAP-PKA interaction”.

One may read the IC50 as the point on the concentration scale where inhibition reaches its midpoint. By Kd is commonly meant the free concentration of one partner at which half of the binding sites on the other are occupied at equilibrium, for simple one-to-one binding. The low end stands for higher affinity, the high end for lower affinity.

The values above are taken from patent publication US9102667B2, “N-arylaminomethylene benzothiophenones for treatment of cardiovascular disease” (FORSCHUNGSVERBUND BERLIN E.V., priority 2011, dated 2015).
